Where “and” joins values, the source holds several entries; their conditions need not be identical. Equal values may be shown once.
Legend:
[1] = Human plasma protein binding; type: in vitro ADME
[2] = Mouse plasma stability; type: in vitro ADME; settings: 5-h incubation
[3] = system: J774 cells; assay: Intracellular drug accumulation assay in J774 cells (LC-MS); settings: 24 hours
[4] = molecular target: CYP2C9 (Homo sapiens, UniProt P11712); assay: Human cytochrome P450 inhibition, 2C9; type: in vitro ADME; settings: read-out: % inhibition of CYP 2C9
Chain of CYP2C9 (P11712 whole entry): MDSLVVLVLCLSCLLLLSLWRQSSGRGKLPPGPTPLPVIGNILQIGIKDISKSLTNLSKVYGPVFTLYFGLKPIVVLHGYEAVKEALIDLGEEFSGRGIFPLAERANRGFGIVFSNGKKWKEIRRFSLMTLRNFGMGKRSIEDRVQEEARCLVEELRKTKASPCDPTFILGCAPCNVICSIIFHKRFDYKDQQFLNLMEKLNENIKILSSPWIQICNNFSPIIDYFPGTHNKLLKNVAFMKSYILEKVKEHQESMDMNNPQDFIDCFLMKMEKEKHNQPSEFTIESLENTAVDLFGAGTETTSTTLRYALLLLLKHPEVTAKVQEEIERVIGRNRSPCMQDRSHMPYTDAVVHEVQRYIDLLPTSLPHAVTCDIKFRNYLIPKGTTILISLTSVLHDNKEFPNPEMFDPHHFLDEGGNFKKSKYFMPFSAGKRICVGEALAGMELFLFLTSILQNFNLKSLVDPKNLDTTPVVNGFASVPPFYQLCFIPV
Protocol: (§1) Assays examining mouse and human liver microsomal stability, kinetic aqueous solubility, mouse and human plasma protein binding and stability, and human cytochrome P450 inhibition characteristics of the compounds were run by BioDuro (San Diego, CA), using standard protocols as previously described [37]. hERG inhibition assays were also performed by BioDuro.

[5] = molecular target: CYP2C19 (Homo sapiens, UniProt P33261); assay: Human cytochrome P450 inhibition, 2C19; type: in vitro ADME; settings: read-out: % inhibition of CYP 2C19
Chain of CYP2C19 (P33261 whole entry): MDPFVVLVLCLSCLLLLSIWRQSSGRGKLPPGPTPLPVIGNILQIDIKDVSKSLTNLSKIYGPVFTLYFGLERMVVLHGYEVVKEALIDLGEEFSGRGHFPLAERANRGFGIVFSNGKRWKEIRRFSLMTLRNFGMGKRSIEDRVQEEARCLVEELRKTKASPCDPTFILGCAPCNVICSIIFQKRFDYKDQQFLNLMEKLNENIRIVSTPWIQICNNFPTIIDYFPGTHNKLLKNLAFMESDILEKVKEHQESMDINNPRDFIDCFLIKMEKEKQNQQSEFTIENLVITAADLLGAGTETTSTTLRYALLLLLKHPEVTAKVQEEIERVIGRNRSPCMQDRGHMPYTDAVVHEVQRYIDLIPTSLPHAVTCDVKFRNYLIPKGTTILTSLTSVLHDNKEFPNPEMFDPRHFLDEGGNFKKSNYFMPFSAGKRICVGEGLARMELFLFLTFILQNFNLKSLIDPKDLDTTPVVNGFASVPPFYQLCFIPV
Protocol: as §1

[6] = system: macrophage phagosomal [Cl−] in BMDMs; assay: Phagosomal maturation assay, BAC/AF594 beads (Cl− readout); type: cell-based, mouse
Protocol: Carboxyfluorescein (pH readout), DQ-BSA/Alexa Fluor 594 (AF594) (proteolysis readout), and BAC/AF594 (Cl^− readout) beads were generated essentially as previously described, except that 10,10′-Bis[3-carboxylpropyl]-9,9′-biacridinium dinitrate di-NHS ester (BAC-SE) was purchased from emp Biotech LLC. BMDMs were isolated from C57BL/6J mice (The Jackson Laboratory) and maintained as described above. […] Assay buffer consisted of PBS (pH 7.2), supplemented with 5% FBS, 5 mM dextrose, 1 mM CaCl2, 2.7 mM KCl, and 0.5 mM MgCl2 in the case of assays with the carboxyfluorescein or DQ-BSA/AF594 beads. For assays with the BAC/AF594 beads, assay buffer consisted of PBS (pH 7.2), supplemented with 5% FBS, 5 mM dextrose, 1 mM calcium acetate, 1.35 mM K2SO4, and 0.5 mM MgSO4 [9]. Sensor beads at approximately 2 to 5 beads/macrophage in appropriate assay buffer were finally added, with data acquisition on a Biotek Synergy H1 microplate reader with bottom read signal detection started within 2 to 3 minutes of bead addition. Excitation/emission wavelengths were 450 nm/520 nm and 490 nm/520 nm for carboxyfluorescein, 490 nm/520 nm for DQ-BSA, 365 nm/505 nm for BAC, and 590 nm/617 nm for AF594. Each experiment was run with a total of 3 to 5 replicate wells/condition, with temperature maintained at 37°C throughout the assay. Wells were read every 2 minutes for 2 hours for the carboxyfluorescein bead assays, every 2 minoutes for 4 hours for the DQ-BSA/AF594 bead assays, and every 1 minute for 2 hours for the BAC/AF594 bead assays. Analyses of the results were performed as previously described.

[7] = system: Mtb; assay: Mtb growth assay in cholesterol medium (OD600); settings: for OD600: Fig. 2G
From the text: Bacterial growth was tracked by measuring OD600 every 3 days for 12 days. […] Bacterial growth was tracked by measurement of OD600 every 3 days over 12 days.

[8] = system: Mtb-infected J774 cells; settings: 10 μM, 24 hours, 5 days post-infection

Compound: CCSc1ncc(CN2CCN(c3nc4ccccc4o3)CC2)cn1 [C6, 2-(4-((2-(ethylthio)pyrimidin-5-yl)methyl)piperazin-1-yl)benzo[d]oxazole]
- fraction unbound [1]: 0.008
- remaining at 5 h [2]: > 99.9%
- Intracellular accumulation in J774 cells [3]: dose-dependent accumulation
- inhibition at 10 µM [4]: 25.7%
- inhibition at 10 µM [5]: 30.3%
- Effect on increase in [Cl−] during macrophage phagosomal maturation ([6]; 10 μM, uninfected BMDMs): no significant effect
- AF594/BAC fluorescence, Average ([6]; Time 0 minutes): 0.6122
- AF594/BAC fluorescence, replicates ([6]; Time 0 minutes): 0.5839 and 0.6162 and 0.6235 and 0.6146 and 0.6227
- AF594/BAC fluorescence, Average ([6]; Time 1 minutes): 0.5459
- AF594/BAC fluorescence, replicates ([6]; Time 1 minutes): 0.5421 and 0.5573 (2×) and 0.546 and 0.5266
- AF594/BAC fluorescence, Average ([6]; Time 2 minutes): 0.5408
- AF594/BAC fluorescence, replicates ([6]; Time 2 minutes): 0.5319 and 0.5419 and 0.5358 and 0.5431 and 0.5513
- AF594/BAC fluorescence, Average ([6]; Time 3 minutes): 0.5344
- AF594/BAC fluorescence, replicates ([6]; Time 3 minutes): 0.5344 and 0.5364 and 0.543 and 0.5118 and 0.5462
- AF594/BAC fluorescence, Average ([6]; Time 4 minutes): 0.5424
- AF594/BAC fluorescence, replicates ([6]; Time 4 minutes): 0.5625 and 0.5432 and 0.5412 and 0.5272 and 0.538
- AF594/BAC fluorescence, Average ([6]; Time 5 minutes): 0.5329
- AF594/BAC fluorescence, replicates ([6]; Time 5 minutes): 0.545 and 0.5366 and 0.532 and 0.5179 and 0.5328
- AF594/BAC fluorescence, Average ([6]; Time 7 minutes): 0.5364
- AF594/BAC fluorescence, replicates ([6]; Time 7 minutes): 0.548 and 0.5294 and 0.5467 and 0.5183 and 0.5395
- AF594/BAC fluorescence, Average ([6]; Time 9 minutes): 0.5382
- AF594/BAC fluorescence, replicates ([6]; Time 9 minutes): 0.5413 and 0.5472 and 0.5302 and 0.5353 and 0.5369
- AF594/BAC fluorescence, Average ([6]; Time 11 minutes): 0.548
- AF594/BAC fluorescence, replicates ([6]; Time 11 minutes): 0.555 and 0.5414 and 0.5741 and 0.5202 and 0.5492
- AF594/BAC fluorescence, Average ([6]; Time 13 minutes): 0.5691
- AF594/BAC fluorescence, replicates ([6]; Time 13 minutes): 0.5666 and 0.5688 and 0.5877 and 0.5543 and 0.5682
- AF594/BAC fluorescence, Average ([6]; Time 15 minutes): 0.5821
- AF594/BAC fluorescence, replicates ([6]; Time 15 minutes): 0.5799 and 0.5786 and 0.5955 and 0.5676 and 0.5889
- AF594/BAC fluorescence, Average ([6]; Time 17 minutes): 0.5935
- AF594/BAC fluorescence, replicates ([6]; Time 17 minutes): 0.5853 and 0.6046 and 0.6099 and 0.5629 and 0.6045
- AF594/BAC fluorescence, Average ([6]; Time 19 minutes): 0.603
- AF594/BAC fluorescence, replicates ([6]; Time 19 minutes): 0.5752 and 0.6161 and 0.6348 and 0.5964
- AF594/BAC fluorescence, Average ([6]; Time 21 minutes): 0.6193
- AF594/BAC fluorescence, Average ([6]; Time 23 minutes): 0.618
- AF594/BAC fluorescence, Average ([6]; Time 25 minutes): 0.6229
- AF594/BAC fluorescence, Average ([6]; Time 27 minutes): 0.6239
- AF594/BAC fluorescence, Average ([6]; Time 29 minutes): 0.6453
- AF594/BAC fluorescence, Average ([6]; Time 31 minutes): 0.6313
- AF594/BAC fluorescence, Average ([6]; Time 33 minutes): 0.6482
- AF594/BAC fluorescence, Average ([6]; Time 35 minutes): 0.6392
- AF594/BAC fluorescence, Average ([6]; Time 37 minutes): 0.6481
- AF594/BAC fluorescence, Average ([6]; Time 39 minutes): 0.6418
- AF594/BAC fluorescence, Average ([6]; Time 41 minutes): 0.6532
- AF594/BAC fluorescence, Average ([6]; Time 43 minutes): 0.6524
- AF594/BAC fluorescence, Average ([6]; Time 45 minutes): 0.6458
- AF594/BAC fluorescence, Average ([6]; Time 46 minutes): 0.6438
- AF594/BAC fluorescence, Average ([6]; Time 47 minutes): 0.6518
- AF594/BAC fluorescence, Average ([6]; Time 48 minutes): 0.6423
- AF594/BAC fluorescence, Average ([6]; Time 49 minutes): 0.6502
- AF594/BAC fluorescence, Average ([6]; Time 50 minutes): 0.6427
- AF594/BAC fluorescence, Average ([6]; Time 51 minutes): 0.6412
- AF594/BAC fluorescence, Average ([6]; Time 52 minutes): 0.6437
- AF594/BAC fluorescence, Average ([6]; Time 53 minutes): 0.6415
- AF594/BAC fluorescence, Average ([6]; Time 54 minutes): 0.6535
- AF594/BAC fluorescence, Average ([6]; Time 55 minutes): 0.646
- AF594/BAC fluorescence, Average ([6]; Time 56 minutes): 0.6496
- AF594/BAC fluorescence, Average ([6]; Time 57 minutes): 0.6559
- AF594/BAC fluorescence, Average ([6]; Time 58 minutes): 0.6523
- AF594/BAC fluorescence, Average ([6]; Time 59 minutes): 0.6473
- AF594/BAC fluorescence, Average ([6]; Time 60 minutes): 0.6412
- AF594/BAC fluorescence, Average ([6]; Time 61 minutes): 0.6401
- AF594/BAC fluorescence, Average ([6]; Time 62 minutes): 0.6424
- AF594/BAC fluorescence, Average ([6]; Time 63 minutes): 0.6429
- AF594/BAC fluorescence, Average ([6]; Time 64 minutes): 0.6497
- AF594/BAC fluorescence, Average ([6]; Time 65 minutes): 0.6542
- AF594/BAC fluorescence, Average ([6]; Time 66 minutes): 0.6415
- AF594/BAC fluorescence, Average ([6]; Time 67 minutes): 0.656
- AF594/BAC fluorescence, Average ([6]; time 6 minutes): 0.5344
- AF594/BAC fluorescence, replicates ([6]; time 6 minutes): 0.55 and 0.5263 and 0.5408 and 0.5119 and 0.5432
- AF594/BAC fluorescence, Average ([6]; time 8 minutes): 0.5381
- AF594/BAC fluorescence, replicates ([6]; time 8 minutes): 0.5319 and 0.5466 and 0.5386 and 0.538 and 0.5353
- AF594/BAC fluorescence, Average ([6]; time 10 minutes): 0.5471
- AF594/BAC fluorescence, replicates ([6]; time 10 minutes): 0.5453 and 0.5491 and 0.5758 and 0.5298 and 0.5354
- AF594/BAC fluorescence, Average ([6]; time 12 minutes): 0.5563
- AF594/BAC fluorescence, replicates ([6]; time 12 minutes): 0.5501 and 0.57 and 0.5742 and 0.5198 and 0.5673
- AF594/BAC fluorescence, Average ([6]; time 14 minutes): 0.5706
- AF594/BAC fluorescence, replicates ([6]; time 14 minutes): 0.5628 and 0.5864 and 0.5841 and 0.542 and 0.5776
- AF594/BAC fluorescence, Average ([6]; time 16 minutes): 0.5854
- AF594/BAC fluorescence, replicates ([6]; time 16 minutes): 0.5806 and 0.5704 and 0.6264 and 0.5665 and 0.5832
- AF594/BAC fluorescence, Average ([6]; time 18 minutes): 0.5961
- AF594/BAC fluorescence, replicates ([6]; time 18 minutes): 0.5808 and 0.5961 and 0.6277 and 0.5767 and 0.5992
- AF594/BAC fluorescence, Average ([6]; time 20 minutes): 0.6147
- AF594/BAC fluorescence, replicates ([6]; time 20 minutes): 0.6043
- AF594/BAC fluorescence, Average ([6]; time 22 minutes): 0.6194
- AF594/BAC fluorescence, Average ([6]; time 24 minutes): 0.6332
- AF594/BAC fluorescence, Average ([6]; time 26 minutes): 0.631
- AF594/BAC fluorescence, Average ([6]; time 28 minutes): 0.638
- AF594/BAC fluorescence, Average ([6]; time 30 minutes): 0.6338
- AF594/BAC fluorescence, Average ([6]; time 32 minutes): 0.6382
- AF594/BAC fluorescence, Average ([6]; time 34 minutes): 0.6489
- AF594/BAC fluorescence, Average ([6]; time 36 minutes): 0.6508
- AF594/BAC fluorescence, Average ([6]; time 38 minutes): 0.652
- AF594/BAC fluorescence, Average ([6]; time 40 minutes): 0.6508
- AF594/BAC fluorescence, Average ([6]; time 42 minutes): 0.6499
- AF594/BAC fluorescence, Average ([6]; time 44 minutes): 0.6458
- Inhibition of Mtb growth in cholesterol media ([7]; 10 μM, OD600 over 12 days): inhibited Mtb growth
- OD600 ([7]; day 3, average): 0.06
- OD600 ([7]; day 3, individual replicates): 0.06
- OD600 ([7]; day 6, average): 0.09333
- OD600 ([7]; day 6, individual replicates): 0.1 (2×) and 0.08
- OD600 ([7]; day 9, average): 0.12
- OD600 ([7]; day 9, individual replicates): 0.12 and 0.1 and 0.14
- OD600 ([7]; day 12, average): 0.1533
- OD600 ([7]; day 12, individual replicates): 0.14 (2×) and 0.18
- Accumulation in Mtb-infected J774 cells [8]: confirmed C6 accumulation

From PMC8351955, “Targeting Mycobacterium tuberculosis response to environmental cues for the development of effective antitubercular drugs” (PLoS Biology, 2021)
